# Several values for one entry are separate records, joined by “and”; a condition that tells them apart may be missing. Equal entries are not always repeated.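 In this assay, cells in 96-well plates receive the compound at five concentrations for 48 hours. Endpoints are linearly interpolated between the surrounding concentrations. GI50: concentration for 50% inhibition of growth. TGI denotes the concentration required for complete inhibition of growth.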
# Key:
# Test in all cases: growth of human tumour cells (NCI), 48 h
# A498 renal = system: A498 renal
# A549 NSCLC = system: A549 NSCLC
# CCRF-CEM leukemia = system: CCRF-CEM leukemia
# HCC-2998 colon = system: HCC-2998 colon
# HOP-92 NSCLC = system: HOP-92 NSCLC
# IGROV1 ovarian = system: IGROV1 ovarian
# MOLT-4 leukemia = system: MOLT-4 leukemia
# NCI-H460 lung = system: NCI-H460 lung
# RPMI-8226 leukemia = system: RPMI-8226 leukemia
# SNB-75 CNS = system: SNB-75 CNS
Structure (SMILES),TGI (A498 renal) [µM],TGI (A549 NSCLC),TGI (CCRF-CEM leukemia),TGI (HCC-2998 colon),TGI (HOP-92 NSCLC) [µM],TGI (IGROV1 ovarian),TGI (MOLT-4 leukemia),TGI (NCI-H460 lung),TGI (RPMI-8226 leukemia),TGI (SNB-75 CNS),GI50 (A498 renal),GI50 (A549 NSCLC) [µM],GI50 (CCRF-CEM leukemia) [µM],GI50 (HOP-92 NSCLC) [µM],GI50 (IGROV1 ovarian) [µM],GI50 (MOLT-4 leukemia) [nM],GI50 (NCI-H460 lung) [nM],GI50 (RPMI-8226 leukemia) [µM],GI50 (SNB-75 CNS) [nM],GI50 (HCC-2998 colon) [µM]
C=C1C(=O)OC2C1C(OC(=O)/C(C)=C\C)CC1(CO1)C1C(O)C=C(C)C21O (configuration not stated),17.7,40.6 µM,> 100 µM,15.1 µM,31.3,29.7 µM,11.8 µM,29.4 µM,22.2 µM,29.2 µM,,,,,,,,,,
CC(=O)ON(C(C)=O)C1C(COC(c2ccccc2)(c2ccccc2)c2ccccc2)OC2OC3(CCCC3)OC21 (configuration not stated),> 100,> 100 µM,> 100 µM,> 100 µM,8.27,> 100 µM,> 31 µM,> 100 µM,9.83 µM,> 100 µM,,,,,,,,,,
COc1ccc(/C=C\c2cc(OC)c(OC)c(OC)c2)c(O)c1O,,> 70.1 µM and 88.7 µM,30.8 µM and 11.4 µM,2.47 µM and 3.06 µM,,20.6 µM and 54.2 µM,20.8 µM and 3.4 µM,9.22 µM and 4.42 µM,20.9 µM and 9.14 µM,20.7 µM and 48.2 µM,247 nM and 50 nM,0.0754,0.274,0.0588,0.212,456,106,0.0635,2360,
O=S(=O)(Nc1ccc2ccccc2c1)c1ccc(-c2cnc(C3CC3)o2)cc1,5.28,> 100 µM,> 100 µM,6.06 µM,30.9,14 µM,> 100 µM,10.9 µM,24.8 µM,6.07 µM,462 nM,1.74,1.64,3.68,1.08,873,560,3.18,616,1.48
C#CCN(N=O)C(=O)NCCCC(NC(C)=O)C(=O)NCc1ccccc1 (configuration not stated),> 100,> 100 µM,70.3 µM,> 100 µM,> 100,> 100 µM,> 100 µM,> 100 µM,> 100 µM,> 100 µM,,,,,,,,,,
O=C(Cn1c(C(=O)c2ccccc2)nc2ccccc21)c1ccc(F)cc1,> 43.7,> 100 µM,> 100 µM,> 100 µM,> 100,> 100 µM,> 28.1 µM,> 76 µM,> 52.5 µM,> 100 µM,4860 nM,22.9,5.75,60.2,10.9,2490,12000,3.47,10500,6.41
COc1cc2c(cc1OC)c1c(OC)c(OC)cc3c1c1c2sc(=S)n1CC3,> 100,> 100 µM,> 100 µM,> 100 µM,> 100,> 100 µM,> 100 µM,> 100 µM,> 100 µM,> 100 µM,,,,,,,,,,
CC(=O)NC(CCCCN(Cc1ccccc1)C(=O)N(CCCl)N=O)C(=O)NCc1ccccc1 (configuration not stated),> 100,49.5 µM,> 84.3 µM,> 100 µM,68.6,60 µM,> 82.1 µM,42.9 µM,79 µM,63.8 µM,,,,,,,,,,
CC(=O)O/N=C(Cl)/C(Cl)=N/OC(C)=O,> 100,> 100 µM,> 100 µM,> 100 µM,> 100,> 100 µM,> 100 µM,> 100 µM,> 100 µM,> 100 µM,,,,,,,,,,
O=C(O)CCSC(=O)Nc1ccccc1Cl,> 100,> 100 µM,> 100 µM,> 100 µM,> 100,> 100 µM,> 100 µM,> 100 µM,> 100 µM,> 100 µM,,,,,,,,,,
O=C(Nc1nc(-c2ccc(Cl)cc2)nc2c1sc(=S)n2-c1ccccc1)C(F)(F)F,7.8,18 µM,> 100 µM,> 100 µM,6.08,14.3 µM,> 100 µM,7.26 µM,> 100 µM,3.49 µM,1770 nM,3.88,> 100,2.35,3.9,> 100000,2720,8.37,1680,10.3
CC[C@]12C=CCN3CC[C@@]4(c5ccc(OC)cc5N(C)[C@H]4[C@@](O)(C(=O)OC)[C@@H]1OC(=O)CCC(=O)N[C@H](Cc1c[nH]c4ccccc14)C(=O)OC)[C@@H]32,30.8,22.1 µM,> 100 µM,37.9 µM,24.4,24.1 µM,> 100 µM,32.8 µM,44.7 µM,14.1 µM,9290 nM,5.36,3.34,4.02,4.3,3250,14800,3.63,2230,6.01

# Reference: PubChem BioAssay (NCI)
